Data as given in patent US12728109B2, “Method of increasing the population of Dialister spp. in the gut microbiome” (DSM IP ASSETS B.V., priority 2020, dated 2026).

How the values were obtained:
Dialister [1] = test: In vitro fermentation study 2: intestinal batch fermentation with fecal suspension, 16S rRNA Illumina sequencing and flow cytometry; type: cell-based, Dialister spp.; settings: fermentation supernatant at 24 h, donor C, FIG. 1B
Protocol: (§1) At the start of this intestinal batch fermentation incubation, all test ingredients were added from stock solutions to the modified nutritional medium, containing (g/l): 2.5 K2HPO4, 10.9 KH2PO4, 2 NaHCO3, 2 yeast extract, 2 peptone, 1 mucin, 0.5 cystein, 2 Tween 80, 2 glucose, 2 starch, 2 cellobiose, 0.1 NaCl, 0.01 MgSO4·7H2O, 0.01 CaCl2·6H2O, 0.05 hemin, 0.5 bile salts.
The following compounds were added from stock solutions prepared in water: • Beta-carotene, • Vitamin B3, • Vitamin B5, • Vitamin B7, • Fructooligosaccharides (positive control)
(§2) As a source of the microbial community, freshly prepared fecal suspension from a donor was added to the reactors. […] All tests, except the blanks, were performed in single repetition. Incubation conditions were 48 h at 37° C., under shaking (90 rpm) and anaerobic conditions.
Microbial composition: Illumina sequencing was performed at the start and after 24 h of incubation. The technique targets the 16S rRNA gene that consists of variable and conserved regions, spread over the gene. Due to their key role in protein expression, the conserved regions are characterized by very low evolutionary rates.
The methodology applied involves primers that span 2 hypervariable regions (V3-V4) of the 16S rRNA gene. Using a pair-end sequencing approach, sequencing of 2×250 bp results in 424 bp amplicons. Such fragments are taxonomically more informative as compared to smaller fragments. Samples that were analyzed with Illumina sequencing were also analyzed with flow cytometry to determine the number of total bacterial cells, thus allowing to convert the proportional values obtained with Illumina into absolute quantities. Samples were analyzed on a BDFacs verse. The samples were run using the high flow rate. Bacterial cells were separated from medium debris and signal noise by applying a threshold level of 200 on the SYTO channel. Proper parent and daughter gates were set to determine all populations.

Dialister [2] = test: In vitro fermentation study 1: intestinal batch fermentation with fecal suspension, shotgun metagenome sequencing; type: cell-based, Dialister spp.; settings: fermentation supernatant at 24 hours; all tested concentrations (0.2x, 1x, 5x); FIG. 1A
Protocol: as §1, with “cysteine,” for “cystein,”
The following compounds were added from stock solutions prepared in water for vitamin B2 and B9, and in ethanol for vitamin K1, DHA and EPA:
as §2, with “Each compound was tested in three different concentrations. As” for “As”
Microbial composition: Total DNA was extracted from all fermentation samples collected throughout the study using the QIAamp DNA stool minikit (Qiagen, Crawley, United Kingdom) according to the manufacturer's instructions, apart from addition of a bead-beating step and increasing the lysis temperature to 95° C. as described previously. After DNA isolation, DNA was quantified using the Qubit High Sensitivity DNA assay (Thermo Fisher). Whole metagenome libraries were then prepared using the Illumina Nextera XT kit (Illumina) in accordance with the manufacturer's instructions, with the following modifications: Firstly, tagmentation time was increased to 7 min and secondly, following incorporation of indices and Ampure purification of the products, the samples were each individually sized by running on an Agilent High Sensitivity Chip (Agilent) and quantified using the Qubit High Sensitivity DNA assay (Thermo Fisher) in accordance with Teagasc Sequencing Platform SOPs. […] Delivered raw FASTQ sequence files were quality checked as follows: poor quality and duplicate read removal, as well as trimming was implemented using a combination of SAM and Picard tools. Taxonomy was assigned to the reads using the Metaphlan2 software.

fecal Dialister = test: Clinical study: randomized, double-blind, placebo-controlled study of colon-targeted vitamins, fecal microbial composition; type: in vivo; settings: human, colon-release capsule once daily for four weeks, fecal samples; FIG. 1C
Source text: Twelve participants were allocated to each of the six vitamin groups, and 24 participants allocated to the placebo group. All 96 participants completed the intervention. To be considered eligible for enrollment into the study, participants have to be able to give written informed consent; be aged between 20 and 50 years of age; have a BMI of between 18.5-30 Kg/m2; have a stable body weight (<5% change) over the past 3-months; be in generally good health, as determined by the investigator; have not consumed dietary supplements, prebiotic, probiotic, dietary or fiber-rich supplements within 4 weeks prior to baseline visit and be willing to avoid these supplements until the end of the study; be willing to avoid liver consumption for the duration for the study, be willing to maintain their current level of physical activity for the duration of the study; and be willing to consume the IP daily for the duration of the study. […] Before the randomization visit, participants food frequency questionnaires were analyzed to ensure their typical fiber intake is <30 g fiber/day. […] At the baseline visit (Visit 2), participants retuned a fecal samples collected in the previous 48 hours and eligibility was assessed. […] Participants returned their IP and compliance was assessed. […]

Molecule	Dialister relative abundances compared to control (Dialister [1]; all tested concentrations)	Dialister relative abundances compared to control (Dialister [2])	other results
CC1=C(/C=C/C(C)=C/C=C/C(C)=C/C=C/C=C(C)/C=C/C=C(C)/C=C/C2=C(C)CCCC2(C)C)C(C)(C)CCC1 [beta-carotene, Beta-carotene]	increase	–	–
Cc1cc2nc3c(=O)[nH]c(=O)nc-3n(C[C@H](O)[C@H](O)[C@H](O)CO)c2cc1C [vitamin B2, Riboflavin]	–	substantial increase	–
NC(=O)c1cccnc1 [vitamin B3, Niacinamide]	no distinct increase	–	–
CC(C)(CO)[C@@H](O)C(=O)NCCC(=O)O [vitamin B5, Pantothenic acid]	–	–	Dialister relative abundances compared to control (Dialister [1]; at 0.2× and 5×): increase
O=C(O)CCCC[C@@H]1SC[C@@H]2NC(=O)N[C@@H]21 [vitamin B7, Biotin]	no distinct increase	–	–
Nc1nc2ncc(CNc3ccc(C(=O)N[C@@H](CCC(=O)O)C(=O)O)cc3)nc2c(=O)[nH]1 [vitamin B9, Folic acid]	–	no distinct increase	–
C=C1CC[C@H](O)C/C1=C/C=C1\CCC[C@]2(C)[C@@H]([C@H](C)CCCC(C)C)CC[C@@H]12 [vitamin D3, cholecalciferol]	–	–	Dialister relative abundance compared to placebo (fecal Dialister): increase
CC1=C(C/C=C(\C)CCC[C@H](C)CCC[C@H](C)CCCC(C)C)C(=O)c2ccccc2C1=O [vitamin K1]	–	substantial increase	–
vitamin A	–	–	Dialister relative abundance compared to placebo (fecal Dialister): increase
